In article PMC3898987 (Bioorganic & Medicinal Chemistry, 2013):
Substitutions are numbered along the chain they refer to.

What was measured:
[1] = biological target: T1, 5-HT3AB receptor, 5-HT3B subunit H73A (Homo sapiens, UniProt O95264+P46098, H66A); assay: cell-based
T1 sequence (P46098 24-478): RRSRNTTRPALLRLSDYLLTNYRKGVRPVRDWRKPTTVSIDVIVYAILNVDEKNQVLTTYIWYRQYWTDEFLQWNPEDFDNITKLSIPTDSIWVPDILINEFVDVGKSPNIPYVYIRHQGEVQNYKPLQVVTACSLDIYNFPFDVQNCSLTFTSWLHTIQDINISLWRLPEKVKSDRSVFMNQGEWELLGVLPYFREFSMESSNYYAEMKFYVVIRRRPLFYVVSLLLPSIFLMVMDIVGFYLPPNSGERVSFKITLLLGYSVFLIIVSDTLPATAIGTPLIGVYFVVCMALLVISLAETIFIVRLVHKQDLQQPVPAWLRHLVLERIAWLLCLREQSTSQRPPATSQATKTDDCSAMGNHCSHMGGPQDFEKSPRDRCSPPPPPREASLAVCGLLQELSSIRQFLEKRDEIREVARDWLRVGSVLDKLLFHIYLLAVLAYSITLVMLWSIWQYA
T1 sequence (O95264 22-441 H66A): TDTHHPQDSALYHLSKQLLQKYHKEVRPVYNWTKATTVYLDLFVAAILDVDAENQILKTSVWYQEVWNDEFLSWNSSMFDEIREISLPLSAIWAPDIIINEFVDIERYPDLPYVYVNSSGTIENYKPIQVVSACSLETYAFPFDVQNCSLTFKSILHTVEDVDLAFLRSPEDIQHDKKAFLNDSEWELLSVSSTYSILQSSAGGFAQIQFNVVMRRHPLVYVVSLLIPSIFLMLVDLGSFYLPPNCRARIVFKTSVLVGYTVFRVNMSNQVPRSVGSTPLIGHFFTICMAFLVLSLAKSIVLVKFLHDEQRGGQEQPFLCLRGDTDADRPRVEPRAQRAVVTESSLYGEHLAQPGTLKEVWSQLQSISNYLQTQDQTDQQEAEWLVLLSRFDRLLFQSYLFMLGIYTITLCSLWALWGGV
Method: (§1) Human embryonic kidney (HEK) 293 cells were cultured on 90 mm tissue culture plates at 37 °C and 7% CO2 in a humidified atmosphere. They were grown in DMEM:F12 (Dulbecco’s Modified Eagle’s Medium/Nutrient Mix F12 (1:1)) with GlutaMAX I™ containing 10% fetal calf serum and passaged when confluent. […] For FlexStation assays, transfected cells were plated on 96-well plates and incubated 1–2 days before assay.
(§2) Fluorometric studies were undertaken using a FlexStation® (Molecular Devices, Sunnyvale, CA, USA) as previously described.[11]
(§3) Fluorescence was measured every 2 s for 200 s. […] Concentration–response and inhibition curves were obtained for each mutant, and the fluorescence values were normalized to the maximal response.

[2] = biological target: T2, 5-HT3AB receptor, 5-HT3B subunit W90C (Homo sapiens, UniProt O95264+P46098, W83C); assay: cell-based
T2 sequence (P46098 24-478): T1 sequence (P46098 24-478)
T2 sequence (O95264 22-441 W83C): T1 sequence (O95264 22-441 H66A) with A45H, W62C
Method: as §1, §2, §3

5-HT3A receptor Y73A = biological target: T3, 5-HT3A receptor Y73A (Homo sapiens, UniProt P46098, Y68A); assay: FlexStation membrane potential dye functional assay, HEK293 cells; assay type: cell-based; parameters: expressed in transfected cells; host or cells: HEK293; conditions: inhibition of 5-HT (EC50 concentration) response, 45 min preincubation, 5-HT3A Y73A
T3 sequence (P46098 24-478 Y68A): T1 sequence (P46098 24-478) with Y45A
Method: For FlexStation assays, transfected cells were plated on 96-well plates and incubated 1–2 days before assay.
as §2, §3

5-HT3A receptor S163T = biological target: T4, 5-HT3A receptor S163T (Homo sapiens, UniProt P46098, S158T); assay: radioligand saturation binding, transfected HEK293 membranes; conditions: [3H]-palonosetron saturation, 5-HT3A S163T, 4 °C, 24 h
T4 sequence (P46098 24-478 S158T): T1 sequence (P46098 24-478) with S135T
Method: (§4) Human embryonic kidney (HEK) 293 cells were cultured on 90 mm tissue culture plates at 37 °C and 7% CO2 in a humidified atmosphere. They were grown in DMEM:F12 (Dulbecco’s Modified Eagle’s Medium/Nutrient Mix F12 (1:1)) with GlutaMAX I™ containing 10% fetal calf serum and passaged when confluent. For radioligand binding studies, cells in 90 mm dishes were transfected at 60–70% confluency using polyethyleneimine and incubated for 3–4 days before use. For FlexStation assays, transfected cells were plated on 96-well plates and incubated 1–2 days before assay. […]
(§5) Eight-point binding assays were performed to produce saturation binding curves. […] Radioactive counts were measured using a Beckman LS6000SC liquid scintillation counter (Fullerton, California, USA).
(§6) Data were analyzed by iterative curve fitting using GraphPad Prism v5 (San Diego, CA) according to the following equation: B=Bmax[L]^n/kdn+[L]^n where B is the amount of bound radioligand, Bmax is the maximum specific binding at equilibrium, [L] is the concentration of radioligand, Kd is the equilibrium dissociation constant of the radioligand, and n is the Hill coefficient.

[3] = biological target: T5, 5-HT3AB receptor, 5-HT3B subunit F130A (Homo sapiens, UniProt O95264+P46098, F123A); assay: as above
T5 sequence (P46098 24-478): T1 sequence (P46098 24-478)
T5 sequence (O95264 22-441 F123A): T1 sequence (O95264 22-441 H66A) with A45H, F102A
Method: as §4, §5, §6

O=C1c2cccc3c2[C@H](CCC3)CN1[C@@H]1CN2CCC1CC2 [Palonosetron]
IC50 [1]: 0.97 ± 0.26 nM
IC50 [2]: 0.37 ± 0.1 nM
IC50 (5-HT3A receptor Y73A): 13.1 ± 1.6 nM
Kd (5-HT3A receptor S163T): 0.22 ± 0.05 nM
Kd ([3]; [3H]-palonosetron saturation, 5-HT3AB with 5-HT3B F130A, 4 °C, 24 h): 0.48 ± 0.03 nM
increase in Kd compared to wild type ([3]; [3H]palonosetron, F130A (5-HT3B) containing heteromers vs WT 5-HT3AB): twofold
